# Results as given in patent US20150087673A1, “METHODS FOR USING AND BIOMARKERS FOR AMPK-ACTIVATING COMPOUNDS” (RIGEL PHARMACEUTICALS, INC., priority 2013, published 2015).
# Columns and labels:
# [1] = test system: db/db mice; assay: [U-13C]-palmitate tracer analysis (13CO2/12CO2 enrichment) in db/db mice; assay type: in vivo, mouse
# Source text: The elevated levels of BHBA detected by the global metabolite profiling are an indirect indicator of an increase in lipid oxidation. […] Appearance of ^13CO2 occurs via β-oxidation of the labeled palmitate to release ^13C-acetyl CoA, which must pass through one round of the TCA cycle before the labeled carbon can be given off as ^13CO2. An increased β-oxidation rate will result in a corresponding increase in ^13CO2 enrichment. In agreement with the elevation in relative BHBA levels detected in liver, adipose, and skeletal muscle tissues, an increase in ^13CO2 enrichment is observed for compound 309 treatment across all three tissues at both 60 and 120 minutes after palmitate administration. Ratios of ^13CO2 to ^12CO2 were higher for all treatment groups, including the vehicle, at 120 minutes compared to 60 minutes after palmitate feeding (FIG. 2). This time-dependent elevation was due to the slow absorption kinetics of the orally administered tracer suspension.
# Male db/db mice (8 weeks) were orally gavaged once daily with vehicle, 5 mg/kg compound 309, or 10 mg/kg compound 309. Thirty minutes after dosing at day 8, 0.5 mg/kg of the metabolic tracer was administered, either via intraperitoneal injection for [U-^13C]-glucose or oral gavage for [U-^13C]-palmitate, followed by collection of liver, muscle, adipose tissue, and plasma at the timepoints indicated in the figure legends. Frozen samples were sent to SiDMAP, LLC (Los Angeles, Calif.) for isotope tracer analysis [Boros L G, Huang D, Heaney A P (2012) Fructose Drives Glucose via Direct Oxidation and Promotes Palmitate/Oleate Co-Release from Hepg2 Cells: Relevance with the Randle Cycle. […]
# The elevated levels of BHBA detected by the global metabolite profiling are an indirect indicator that compound 309 treatment increases lipid oxidation. […] In agreement with the elevation in relative BHBA levels detected in liver, adipose, and skeletal muscle tissues, an increase in ^13CO2 enrichment is observed for compound 309 treatment across all three tissues at both 60 and 120 minutes after palmitate administration. […]
# [2] = test system: AMPK; assay: AMPK activation assay (enzyme-linked immunosorbent assay); assay type: cell-based
# How it was run: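 Test compounds were added, and kinase activation was then detected by immunoassay following established kit procedures.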
# [3] = test system: db/db mice; assay: [U-13C]-D-glucose tracer analysis in db/db mice; assay type: in vivo, mouse
# Protocol: Male db/db mice (8 weeks) were orally gavaged once daily with vehicle, 5 mg/kg compound 309, or 10 mg/kg compound 309. Thirty minutes after dosing at day 8, 0.5 mg/kg of the metabolic tracer was administered, either via intraperitoneal injection for [U-^13C]-glucose or oral gavage for [U-^13C]-palmitate, followed by collection of liver, muscle, adipose tissue, and plasma at the timepoints indicated in the figure legends. Frozen samples were sent to SiDMAP, LLC (Los Angeles, Calif.) for isotope tracer analysis [Boros L G, Huang D, Heaney A P (2012) Fructose Drives Glucose via Direct Oxidation and Promotes Palmitate/Oleate Co-Release from Hepg2 Cells: Relevance with the Randle Cycle. Metabolomics 2: 107-115; Huang J, Simcox J, Mitchell T C, Jones D, Cox J, et al. (2013) Iron regulates glucose homeostasis in liver and muscle via AMP-activated protein kinase in mice. FASEB J.]. [U-^13C]-D-glucose and [U-^13C]-palmitate were from Sigma-Aldrich. Sample preparation, analysis, and informatics were performed on blinded samples. Statistical analyses were performed using the 2-tailed Student t test.
# A more sensitive [U-^13C]-D-glucose tracer analysis was carried out as follows: Non-fasted db/db mice treated with vehicle or compound 309 for one week were given an intraperitoneal injection of an [U-^13C]-D-glucose tracer (0.5 mg/kg) followed by measurements of tracer carbon incorporation into various metabolites after glucose injection.
# [4] = test system: gluconeogenesis; assay: Gluconeogenesis in vitro; assay type: cell-based
# [5] = test system: glucose uptake; assay: Glucose uptake in vitro; assay type: cell-based
# [6] = Compound plasma levels after oral dosing; assay type: in vivo, mouse
# Protocol: Metabolite profiling of tissues from db/db mice orally dosed with either vehicle or 10 mg/kg compound 309 was used to characterize in detail the effects of the present AMPK activators on nutrient pathways in a commonly used mouse model of type 2 diabetes. […] Since AMPK activation results in both acute and chronic changes to metabolic pathways, samples from non-fasted mice treated for three days with compound 309 were analyzed. Samples were collected thirty minutes after compound dosing when compound 309 plasma levels as well as tissue AMPK activation were maximal.
smiles,measurement,setting,value
"COc1ccc(C(=O)C2CCN(C(=O)c3ccc(C(=O)NC4CCN(Cc5ccc(C#N)cc5)CC4)cn3)CC2)cc1 [Compound 309, N-(1-(4-cyanobenzyl)piperidin-4-yl)-6-(4-(4-methoxybenzoyl)piperidine-1-carbonyl)nicotinamide]",13CO2 enrichment after [U-13C]-palmitate,"[1]; liver, adipose and skeletal muscle, 60 and 120 minutes after palmitate administration, treated one week",increase
same,fatty acid oxidation,"[1]; liver, skeletal muscle and adipose tissue, chronic treatment of db/db mice",directly upregulated
same,dose-dependence of 13CO2 enrichment after [U-13C]-palmitate,"[1]; skeletal muscle, 5 and 10 mg/kg",no dose-dependence
same,EC50,[2],< 500 nM
same,skeletal muscle palmitate and myristate levels,[3]; after saponification of muscle acylglycerols and acylcarnitines,significant decreases
same,13CO2 release (glucose oxidation via the TCA cycle),[3]; all three tissues,increased
same,13CO2 enrichment after [U-13C]-D-glucose,"[3]; liver and adipose tissues, 60 and 90 minutes post-tracer",clear dose-dependent increase
same,13C-labeled fraction of palmitate,"[3]; plasma or liver, data not shown",no increase
same,dose-dependence of complete glucose tracer oxidation,[3]; skeletal muscle,no dose-dependence
same,13C-labeled fatty acids in palmitate and myristate pools,"[3]; skeletal muscle, 60 and 90 minutes",significantly enriched
same,13CO2 enrichment after [U-13C]-D-glucose vs vehicle,"[3]; skeletal muscle, 60 minutes",no differences
same,level of 13C-labeled myristate compared to vehicle,"[3]; skeletal muscle, 90 minute timepoint",two-fold higher
same,tracer oxidation (13CO2 enrichment) after [U-13C]-D-glucose,"[3]; skeletal muscle, 90 minutes",clearly sustained
same,gluconeogenesis,[4],reduction
same,glucose uptake,[5],robust enhancement
same,time after compound dosing when plasma levels were maximal,[6],thirty
